# Assay results published in US20110045998A1, “CANDIDATE GENES AND BLOOD BIOMARKERS FOR BIPOLAR MOOD DISORDER, ALCOHOLISM AND STRESS DISORDER” (priority 2007, published 2011).
# Entries after “also recorded” stand apart in the source; their conditions may differ. Read-outs that look alike come from different tables or passages of the source.
# Columns and labels:
# DBP KO NST mice = experiment: Locomotor pattern testing (open field video tracking) after acute methamphetamine, non-stressed mice; format: in vivo; details: methamphetamine 10 mg/kg intra-peritoneal
# Protocol: Drugs: Mice were administered saline, valproate (200 mg/kg), or methamphetamine (10 mg/kg) acutely by intra-peritoneal injection.
# Locomotor Pattern Testing: A SMART II Video Tracker (VT) system (San Diego Instruments, San Diego, Calif.) was used to track movement of mice immediately after drug administration and again 24 hours later. After injection, mice were placed in the lower-right-hand corner of one of four adjacent, 41×41×34-cm^3 enclosures. Mice had no physical contact with other mice during testing. Each enclosure has nine pre-defined areas, i.e. center area, corner area, and wall area. The movements of the mice were recorded for 30 minutes.
# Measures of overall locomotor activity were obtained and represented by the total distance traveled within and between each of the nine regions of the enclosure. Two categories of behavior were obtained. First, the amount of locomotor activity was assessed by using the total distance traveled in the open field in a 30-minute interval. Second, the spatial scaling exponent, d, or spatial D, was obtained. Spatial D is a quantified measure of the geometric patterns of locomotor activity. Briefly, spatial d is a measure of the non-linear nature of an animal's locomotor movement and is quantified on a scale from 1 to 2; with d=1 indicating extremely linear movement and d=2 representing highly non-linear locomotor movement.
# Data and Statistical Analysis: Two-way analyses of variance (ANOVAs) were used to compare total distance traveled and spatial d. Genotype and/or drug treatment were between-subjects variables, and time was a within-subjects variable. All computations were conducted with SPSS statistical software (SPSS Inc., Chicago, Ill.).
# Non-Stress (NST) vs. Stress (ST) Experiments: For the Non-Stress (NST) experiments, mice were group housed. For the Stress (ST) experiments, mice were subjected to a chronic stress paradigm consisting of isolation (single housing) for one month, with an acute stressor (behavioral challenge tests) in Week 3. […] At four weeks, mice were injected with either saline or methamphetamine.
# [1] = system: brain gene expression (PFC, AMY, CP, VT); parameters: key: I—Increased in expression; D—decreased in expression; details: cited from earlier work
# DBP KO mice = experiment: Sleep deprivation experiments with valproate pre-treatment, locomotor activity by video tracking; format: in vivo
# Protocol: To further characterize the behavioral phenotype of the DBP KO mice, group-housed (NST) male DBP KO mice were subjected to sleep deprivation for a 24 hour period. Following sleep deprivation, sleep-deprived (SD) mice and control non sleep-deprived (NSD) mice were monitored with video-tracking software. […] In a second sleep deprivation experiment, mice were pre-treated with an IP valproate injection (200 mg/kg) immediately prior to the sleep deprivation experiment. If the change in locomotor behavior that accompanies sleep-deprivation in the SD animals is representative of an endophenotype that is associated with bipolar disorder, then administration of the mood stabilizing agent valproate should counteract the behavioral response of DBP KO mice to sleep deprivation. […] Sleep Deprivation Experiments: Sleep deprivation studies consisted of light cycle changes, with no handling of animals involved, to avoid inducing non-sleep related handling stress confounds. Male DBP KO mice were used in the sleep deprivation experiments as follows: sleep deprived (SD) animals were removed from the standard housing room with a 12 hour off/12 hour on (reverse) light cycle and kept in a dark room overnight the night before the experiment. Non-sleep deprived (NSD) animals were kept in the housing room with the standard light cycle the night before the experiment to allow for a normal night's sleep. […]
structure (smiles),measurement,setting,value
CN[C@@H](C)Cc1ccccc1 [methamphetamine],"stereotypy, as measured by Spatial Deviance",DBP KO NST mice; DBP KO NST mice,reduction in stereotypy
same,Total Distance Traveled,"DBP KO NST mice; DBP KO NST mice, 30 minutes open field",reversed this decrease
same,"stereotypy, as measured by Spatial Deviance",DBP KO NST mice; WT mice,trend towards an increase in stereotypy
same,"Cdk5r1 expression, Bipolar CFG (Ogden et al. 2004)","[1]; AMY, Cat II",AMY Cat II-Meth(D) VPA(D)
same,"Ckmt1 expression, Bipolar CFG (Ogden et al. 2004)","[1]; AMY, Cat III",AMY Cat III-Meth(I) VPA(I)
same,"Sec24d expression, Bipolar CFG (Ogden et al. 2004)","[1]; AMY, Cat III",AMY Cat III-Meth(I)
same,"Gas5 expression, Bipolar CFG (Ogden et al. 2004)","[1]; AMY, Cat IV",AMY Cat IV-Meth(I)
same,"Gnb1 expression, Bipolar CFG (Ogden et al. 2004)","[1]; AMY, Cat IV",AMY Cat IV-Meth (I)
same,"Mef2a expression, Bipolar CFG (Ogden et al. 2004)","[1]; AMY, Cat IV",AMY Cat IV-Meth (D)
same,"Ttr expression, Bipolar CFG (Ogden et al. 2004)","[1]; CP, Cat IV",CP Cat IV-Meth(I)
same,"Gpr88 expression, Bipolar CFG (Ogden et al. 2004)","[1]; PFC, Cat I",PFC Cat I-Meth(I) VPA (I)
same,"Mef2c expression, Bipolar CFG (Ogden et al. 2004)","[1]; PFC, Cat I",D
same,"Penk1 expression, Bipolar CFG (Ogden et al. 2004)","[1]; PFC, Cat I",PFC Cat I-Meth(I) VPA(I)
same,"Ppp1r1b/Darp32 expression, Bipolar CFG (Ogden et al. 2004)","[1]; PFC, Cat I",PFC Cat I-Meth(I) VPA(I)
same,"Tac1 expression, Bipolar CFG (Ogden et al. 2004)","[1]; PFC, Cat I",PFC Cat I-Meth(I) VPA(I)
same,"Alcam expression, Bipolar CFG (Ogden et al. 2004)","[1]; PFC, Cat III",PFC Cat III-Meth(D)
same,"Ddx6 expression, Bipolar CFG (Ogden et al. 2004)","[1]; PFC, Cat III",PFC Cat III-Meth (D)
same,"Gng7 expression, Bipolar CFG (Ogden et al. 2004)","[1]; PFC, Cat III",PFC Cat III-Meth(I) VPA(I)
same,"Scn4b expression, Bipolar CFG (Ogden et al. 2004)","[1]; PFC, Cat III",PFC Cat III-Meth(I) VPA(I)
same,"Actb expression, Bipolar CFG (Ogden et al. 2004)","[1]; PFC, Cat IV",PFC Cat IV-Meth (D)
same,"Arhgap5 expression, Bipolar CFG (Ogden et al. 2004)","[1]; PFC, Cat IV",PFC Cat IV-Meth (I)
same,"Gabra4 expression, Bipolar CFG (Ogden et al. 2004)","[1]; PFC, Cat IV",PFC Cat IV-METH (I)
same,"Gsk3b expression, Bipolar CFG (Ogden et al. 2004)","[1]; PFC, Cat IV",PFC Cat IV-METH (D)
same,"Hectd1 expression, Bipolar CFG (Ogden et al. 2004)","[1]; PFC, Cat IV",PFC Cat IV-Meth(D)
same,"Peg3 expression, Bipolar CFG (Ogden et al. 2004)","[1]; PFC, Cat IV",PFC Cat IV-Meth(D)
same,"Pten expression, Bipolar CFG (Ogden et al. 2004)","[1]; PFC, Cat IV",PFC Cat IV-Meth(D)
same,"Tmod2 expression, Bipolar CFG (Ogden et al. 2004)","[1]; PFC, Cat IV",PFC Cat IV-METH (D)
same,"Alcam expression, Bipolar CFG (Ogden et al. 2004)","[1]; VT, Cat IV",VT Cat IV-Meth(D)
same,"Ddx6 expression, Bipolar CFG (Ogden et al. 2004)","[1]; VT, Cat IV",VT Cat IV-Meth (D)
"CCCC(CCC)C(=O)O [valproate, valproic acid]",locomotion in NSD animals,"DBP KO mice; NSD DBP KO mice, valproate 200 mg/kg vs non-valproate treated",did not have any significant effect on locomotion
same,"total distance traveled, sleep-deprived (SD) vs non sleep-deprived (NSD)","DBP KO mice; male DBP KO mice, IP valproate 200 mg/kg prior to 24 hour sleep deprivation",increase in locomotion is prevented; also recorded: no significant difference in the locomotor behavior of SD and NSD animals
same,"Cdk5r1 expression, Bipolar CFG (Ogden et al. 2004)","[1]; AMY, Cat II",AMY Cat II-Meth(D) VPA(D)
same,"Cacnb2 expression, Bipolar CFG (Ogden et al. 2004)","[1]; AMY, Cat III",AMY Cat III-VPA(D)
same,"Ckmt1 expression, Bipolar CFG (Ogden et al. 2004)","[1]; AMY, Cat III",AMY Cat III-Meth(I) VPA(I)
same,"Ids expression, Bipolar CFG (Ogden et al. 2004)","[1]; AMY, Cat III",AMY Cat III-VPA(D)
same,"Mef2c expression, Bipolar CFG (Ogden et al. 2004)","[1]; AMY, Cat III",AMY Cat III-VPA(D)
same,"Ptov1 expression, Bipolar CFG (Ogden et al. 2004)","[1]; AMY, Cat III",AMY Cat III-VPA(I)
same,"Actb expression, Bipolar CFG (Ogden et al. 2004)","[1]; AMY, Cat IV",AMY Cat IV-VPA (I)
same,"Alcam expression, Bipolar CFG (Ogden et al. 2004)","[1]; AMY, Cat IV",AMY Cat IV-VPA(D)
same,"Atp8a1 expression, Bipolar CFG (Ogden et al. 2004)","[1]; AMY, Cat IV",AMY Cat IV-VPA(D)
same,"Clasp2 expression, Bipolar CFG (Ogden et al. 2004)","[1]; AMY, Cat IV",AMY Cat IV-VPA(D)
same,"Peg3 expression, Bipolar CFG (Ogden et al. 2004)","[1]; AMY, Cat IV",AMY Cat IV-VPA(D)
same,"Ptpn5/Step expression, Bipolar CFG (Ogden et al. 2004)","[1]; AMY, Cat IV",AMY Cat IV-VPA (I)
same,"Sez6 expression, Bipolar CFG (Ogden et al. 2004)","[1]; AMY, Cat IV",AMY Cat IV-VPA(I)
same,"Timp2 expression, Bipolar CFG (Ogden et al. 2004)","[1]; AMY, Cat IV",AMY Cat IV-VPA (D)
same,"Cdk5r1 expression, Bipolar CFG (Ogden et al. 2004)","[1]; CP, Cat III",CP Cat III-VPA(I)
same,"Alcam expression, Bipolar CFG (Ogden et al. 2004)","[1]; CP, Cat IV",CP Cat IV-VPA(D)
same,"Cacnb2 expression, Bipolar CFG (Ogden et al. 2004)","[1]; CP, Cat IV",CP Cat IV-VPA(I)
same,"Gnb1 expression, Bipolar CFG (Ogden et al. 2004)","[1]; CP, Cat IV",CP Cat IV-VPA (D)
same,"Ids expression, Bipolar CFG (Ogden et al. 2004)","[1]; CP, Cat IV",CP Cat IV-VPA(I)
same,"Mef2a expression, Bipolar CFG (Ogden et al. 2004)","[1]; CP, Cat IV",CP Cat IV-VPA (I)
same,"Gsk3b expression, Bipolar CFG (Ogden et al. 2004)","[1]; CP, IV",CP IV-VPA (D)
same,"Gpr88 expression, Bipolar CFG (Ogden et al. 2004)","[1]; PFC, Cat I",PFC Cat I-Meth(I) VPA (I)
same,"Mef2c expression, Bipolar CFG (Ogden et al. 2004)","[1]; PFC, Cat I",I
same,"Penk1 expression, Bipolar CFG (Ogden et al. 2004)","[1]; PFC, Cat I",PFC Cat I-Meth(I) VPA(I)
same,"Ppp1r1b/Darp32 expression, Bipolar CFG (Ogden et al. 2004)","[1]; PFC, Cat I",PFC Cat I-Meth(I) VPA(I)
same,"Tac1 expression, Bipolar CFG (Ogden et al. 2004)","[1]; PFC, Cat I",PFC Cat I-Meth(I) VPA(I)
same,"Gng7 expression, Bipolar CFG (Ogden et al. 2004)","[1]; PFC, Cat III",PFC Cat III-Meth(I) VPA(I)
same,"Scn4b expression, Bipolar CFG (Ogden et al. 2004)","[1]; PFC, Cat III",PFC Cat III-Meth(I) VPA(I)
